Laboratory results published in DBAASP.
≈ marks a conversion by molar mass, not a printed value.

What was measured:
Test in all cases: ≥ marks a high value that may be exact or a test limit, other limits are often not marked, values filed in µg/mL are converted to µM
[1] = tested on: Staphylococcus aureus ATCC 25923
[2] = tested on: Candida albicans FRR 5580
Staphylococcus aureus = tested on: Staphylococcus aureus
[3] = tested on: Escherichia coli ATCC 25922
[4] = tested on: Pseudomonas aeruginosa ATCC 9027
Salmonella sp. = tested on: Salmonella sp.
[5] = tested on: Streptococcus pyogenes M1T1 5448
[6] = tested on: Pseudomonas aeruginosa PAO1
Escherichia coli BL21 = tested on: Escherichia coli BL21
[7] = tested on: Pseudomonas aeruginosa ATCC 27853
[8] = tested on: Klebsiella pneumoniae ATCC 700603
[9] = tested on: Staphylococcus aureus SH1000
[10] = tested on: Staphylococcus aureus ATCC 43300
[11] = tested on: Cryptococcus neoformans ATCC 208821
[12] = tested on: Acinetobacter baumannii ATCC 19606
[13] = tested on: Candida albicans ATCC 90028

MIC [2] [µM] | MIC [3] [µM] | MIC [4] [µM] | MIC [5] [µM] | MIC [6] [µM] | MIC (Escherichia coli BL21) [µM] | Structure (SMILES) | also measured
≥ 45.1 | 5.64 (≈ 7.99 µg/mL) | 22.5 (≈ 32 µg/mL) | – | – | – | NCCCC[C@H](NC(=O)[C@H](Cc1c[nH]c2ccccc12)NC(=O)[C@H](Cc1c[nH]c2ccccc12)NC(=O)[C@H](CCCN=C(N)N)NC(=O)[C@H](Cc1c[nH]c2ccccc12)NC(=O)[C@@H](N)Cc1c[nH]c2ccccc12)C(=O)N[C@@H](Cc1c[nH]c2ccccc12)C(=O)N[C@@H](Cc1c[nH]c2ccccc12)C(N)=O [WWRWWKWW] | MIC [1]: 5.64 µM (≈ 7.99 µg/mL); MIC (Staphylococcus aureus): 2.82 µM (≈ 4 µg/mL)
– | – | – | – | – | – | CC[C@H](C)[C@H](NC(=O)[C@H](C)NC(=O)CNC(=O)[C@@H](NC(=O)[C@@H](N)Cc1ccccc1)[C@@H](C)CC)C(=O)N[C@@H](C)C(=O)N[C@@H](CCCN=C(N)N)C(=O)N[C@@H](CC(C)C)C(=O)N[C@@H](CC(C)C)C(=O)N[C@@H](CO)C(=O)N[C@@H](CCCCN)C(=O)N[C@H](C(=O)N[C@@H](Cc1ccccc1)C(=O)O)[C@@H](C)CC [FIGAIARLLSKIF] | MIC (Salmonella sp.): ≥ 90.5 µM
– | – | – | 0.125 (≈ 0.381 µg/mL) | 16 (≈ 48.7 µg/mL) | 0.25 (≈ 0.761 µg/mL) | CC[C@H](C)[C@H](NC(=O)[C@H](CCCCN)NC(=O)[C@H](CCCCN)NC(=O)CNC(=O)[C@H](CCC(=O)O)NC(=O)[C@H](CCC(N)=O)NC(=O)[C@@H](NC(=O)[C@@H](NC(=O)[C@H](CCCCN)NC(=O)[C@H](CCCCN)NC(=O)[C@H](CC(C)C)NC(=O)[C@H](CCCN=C(N)N)NC(=O)[C@H](CCC(N)=O)NC(=O)[C@H](Cc1ccccc1)NC(=O)[C@@H](NC(=O)[C@H](CCCCN)NC(=O)[C@H](CCC(=O)O)NC(=O)[C@@H](NC(=O)CNC(=O)[C@H](C)N)[C@@H](C)O)[C@@H](C)CC)[C@@H](C)O)[C@@H](C)CC)C(=O)N[C@@H](C)C(=O)N[C@@H](CCCCN)C(=O)N[C@@H](CCCN=C(N)N)C(=O)N[C@@H](Cc1c[nH]c2ccccc12)C(=O)N[C@@H](Cc1c[nH]c2ccccc12)C(=O)O [AGTEKIFQRLKKTIQEGKKIAKRWW] | –
≥ 61.1 | – | 30.6 (≈ 32 µg/mL) | – | – | – | NCCCC[C@H](NC(=O)[C@H](Cc1c[nH]c2ccccc12)NC(=O)[C@H](Cc1c[nH]c2ccccc12)NC(=O)[C@@H](N)CCCN=C(N)N)C(=O)N[C@@H](Cc1c[nH]c2ccccc12)C(=O)N[C@@H](Cc1c[nH]c2ccccc12)C(N)=O [RWWKWW] | –
– | – | – | 8 (≈ 24.2 µg/mL) | 16 (≈ 48.5 µg/mL) | 4 (≈ 12.1 µg/mL) | CC[C@H](C)[C@H](NC(=O)[C@H](CCCCN)NC(=O)[C@H](CCCCN)NC(=O)[C@H](Cc1c[nH]c2ccccc12)NC(=O)[C@H](CCC(=O)O)NC(=O)[C@H](CC(N)=O)NC(=O)[C@@H](NC(=O)[C@@H](NC(=O)[C@H](CCCCN)NC(=O)[C@H](CCCCN)NC(=O)[C@H](CC(C)C)NC(=O)[C@H](CCCN=C(N)N)NC(=O)[C@H](CC(N)=O)NC(=O)[C@H](Cc1ccccc1)NC(=O)[C@@H](NC(=O)[C@H](CCCCN)NC(=O)[C@H](CCC(=O)O)NC(=O)[C@@H](NC(=O)CNC(=O)[C@H](C)N)[C@@H](C)O)[C@@H](C)CC)[C@@H](C)O)[C@@H](C)CC)C(=O)N[C@@H](C)C(=O)N[C@@H](CCCCN)C(=O)N[C@@H](CCCN=C(N)N)C(=O)N[C@@H](C)C(=O)N[C@@H](Cc1c[nH]c2ccccc12)C(=O)O [AGTEKIFNRLKKTINEWKKIAKRAW] | –
– | 1 (≈ 1.51 µg/mL) | – | – | – | – | CC(C)C[C@H](NC(=O)[C@H](C)NC(=O)CNC(=O)[C@H](CC(C)C)NC(=O)[C@H](CC(C)C)NC(=O)[C@H](CCCCN)NC(=O)[C@H](CCCCN)NC(=O)[C@H](CC(C)C)NC(=O)[C@H](CC(C)C)NC(=O)[C@H](CCCCN)NC(=O)[C@H](CC(C)C)NC(=O)[C@H](CC(C)C)NC(=O)[C@@H](N)CCCCN)C(=O)NCC(N)=O [KLLKLLKKLLGALG] | MIC [7]: 21 µM (≈ 31.6 µg/mL); MIC [8]: 5 µM (≈ 7.54 µg/mL); MIC [9]: 10 µM (≈ 15.1 µg/mL); MIC [10]: 3 µM (≈ 4.52 µg/mL); MIC [11]: 3 µM (≈ 4.52 µg/mL); MIC [12]: 1 µM (≈ 1.51 µg/mL); MIC [13]: 11 µM (≈ 16.6 µg/mL)
